Results from patent publication US20240327392A1, “HETEROCYCLOALKYL-SUBSTITUTED POLYHETEROAZOLE DERIVATIVES AS MEDICAMENTS FOR TREATING AND/OR PREVENTING RS VIRUS INFECTIONS” (ALBIUS SCIENCES ALPHA PRIVATE LIMITED, priority 2021, published 2024).

What follows are compounds tested on human RS virus A2 strain (assay: In vitro test for anti-RS virus proliferation inhibitory activity (quantitative RT-PCR of RS virus RNA copy number in infected Vero cells)). Conditions: 72 h; Vero cells infected with human RS virus A2 strain, 3 days of incubation, RS virus N gene RNA copy number by quantitative RT-PCR; read-out: Anti-RS virus Activity.
Assay type: cell-based
Method: A mixture of Vero cells (3.4×10^5 cells/mL) and human RS virus A2 strain (1.7×10^4 TCID50/mL) (EMEM medium supplemented with 10% FCS) was added to a 96-well plate at 50 μL/well, and the 10% FCS-supplemented EMEM medium adjusted to the desired final concentration of the compounds to be tested was added at 50 μL/well, followed by incubating the plate at 37° C. in the presence of 5% CO2 at 37° C. After 3 days of incubation, the supernatant was removed, the cells were washed with PBS(−), and the cell lysis buffer supplied with the SingleShot (registered trademark) Cell Lysis Kit (Bio-Rad) was added dropwise at 50 μL/well to lysis the cells thereby providing the cell lysate.
Human RS virus RNA copy number in the cell lysate was determined by quantitative RT-PCR using iTaq Universal SYBR Green One-Step Kit (Bio-Rad). Specifically, primers targeting human RS virus N gene (Rameix-Welti et al, Nat Commun5: 5104, 2014. doi: 10.1038/ncomms6104) was used to prepare the reaction solution according to the instructions provided with the kit, and a 96-well PikoReal Real-Time PCR System (TCR0096, Thermo Fisher Scientific) was used to detect PCR reaction and signal assay.
The copy number was calculated by the relative method using the comparative Ct method using compound-free virus-infected cells as controls.
For `O=C(c1ccc2cc(C(=O)N3C[C@H](O)C[C@H]3c3nc(CCCc4ccccc4)no3)ccc2c1)N1C[C@H](O)C[C@H]1c1nc(CCCc2ccccc2)no1` [Compound 4-6, Naphthalene-2,6-diylbis(((2S,4R)-4-hydroxy-2-(3-(3-phenylpropyl)-1,2,4-oxadiazol-5-yl)pyrrolidin-1-yl)methanone)], the IC50 was over 50 µM. Compound `O=S(=O)(Cc1ccccc1)N1CCCC[C@H]1c1nc(CCCc2ccccc2)no1` [Compound 2E, 3-(3-phenylpropyl)-5-[(2S)-1-benzylsulfonylpiperidin-2-yl]-1,2,4-oxadiazole] has an IC50 of under 10 µM. For `CC(C)(C)OC(=O)N1C[C@H](O)C[C@H]1c1nc(CCCc2ccccc2)no1` [Compound 3-1, 3-(3-phenylpropyl)-5-[(2S,4R)-1-tert-butoxycarbonyl-4-hydroxypyrrolidin-2-yl]-1,2,4-oxadiazole], the IC50 was over 50 µM. In the case of `O=S(=O)(Cc1ccccc1)N1CCC[C@H]1c1nc(CCCc2ccccc2)no1` [Compound 1E, 3-(3-phenylpropyl)-5-[(2S)-1-benzylsulfonylpyrrolidin-2-yl]-1,2,4-oxadiazole], the IC50 is reported as 10 to 50 µM.

Same assay, conditions: 72 h; Vero cells infected with human RS virus A2 strain, 3 days of incubation, RS virus RNA copy number by quantitative RT-PCR; read-out: Anti-RS virus Activity
`CC(=O)N1CCCC[C@H]1c1nc(CCCc2ccccc2)no1` [Compound 2R] gave an IC50 of 10 to 50 µM. Work on `CC(C)(C)OC(=O)N1C[C@H]2CC[C@]1(c1nc(CCc3ccccc3)no1)CC2` [Compound 15-1, Tert-butyl (1s,4s)-1-(3-phenethyl-1,2,4-oxadiazol-5-yl)-2-azabicyclo[2.2.2]octane-2-carboxylate] yielded an IC50 of 10 to 50 µM. For `CC(C)(C)OC(=O)N1CC2(CC2)C[C@H]1c1nc(CCCc2ccccc2)no1` [Compound 5-1, 3-(3-phenylpropyl)-5-{(6S)-5-tert-butoxycarbonyl-5-azaspiro[2.4]hept-6-yl}-1,2,4-oxadiazole], the IC50 was under 10 µM. Compound `COc1ccc(CCCc2noc([C@@H]3CCCCN3C(=O)OC(C)(C)C)n2)cc1OC` [Compound 22-1, Tert-butyl (S)-2-(3-(3-(3,4-dimethoxyphenyl)propyl)-1,2,4-oxadiazol-5-yl)piperidine-1-carboxylate] has an IC50 of under 10 µM. `O=S(=O)(C1CCOCC1)N1CC(CC2CCC2)CC1c1nc(CCCc2ccccc2)no1` (stereo not drawn) [Compound 6AP, 5-(4-(cyclobuthylmethyl)-1-((tetrahydro-2H-pyran-4-yl)sulfonyl)pyrrolidin-2-yl)-3-(3-phenylpropyl)-1,2,4-oxadiazole] gave an IC50 of under 10 µM. Work on `O=S(=O)(N1CCCCC1)N1CC2(CC2)C[C@H]1c1nc(CCCc2ccccc2)no1` [Compound 5AD, (S)-3-(3-phenylpropyl)-5-(5-(piperidin-1-ylsulfonyl)-5-azaspiro[2.4]heptan-6-yl)-1,2,4-oxadiazole] yielded an IC50 of 10 to 50 µM. Compound `O=S(=O)(c1ccc(F)cc1)N1CCC[C@H]1c1cn(Cc2ccccc2)nn1` [Compound 39AJ, (S)-1-Benzyl-4-(1-((4-fluorophenyl)sulfonyl)pyrrolidin-2-yl)-1H-1,2,3-triazole] has an IC50 of under 10 µM. `O=S(=O)(c1ccc(F)cc1)N1C[C@H](F)C[C@H]1c1nc(CCCc2ccccc2)no1` [Compound 8AJ, 5-((2S,4R)-4-fluoro-1-((4-fluorophenyl)sulfonyl)pyrrolidin-2-yl)-3-(3-phenylpropyl)-1,2,4-oxadiazole] was tested, and the IC50 was under 10 µM. For `O=C(Cc1ccccc1)N1CCC[C@H]1c1nc(CCCc2ccccc2)no1` [Compound 1P, (S)-2-Phenyl-1-(2-(3-(3-phenylpropyl)-1,2,4-oxadiazol-5-yl)pyrrolidin-1-yl) ethan-1-one], the IC50 was under 10 µM. Work on `O=C(NCc1noc([C@@H]2CCCCN2S(=O)(=O)C2CCCCC2)n1)c1cccc2ccccc12` [Compound 26B, (S)—N-((5-(1-(cyclohexylsulfonyl)piperidin-2-yl)-1,2,4-oxadiazol-3-yl)methyl)-1-naphthamide] yielded an IC50 of 10 to 50 µM. With `O=S(=O)(N1CCCC[C@H]1c1nc(CCCc2ccccc2)no1)C12CC3CC(CC(C3)C1)C2` [Compound 2AG, 5-((S)-1-((adamantan-1-yl)sulfonyl)piperidin-2-yl)-3-(3-phenylpropyl)-1,2,4-oxadiazole] the IC50 was 10 to 50 µM. `CC(C)CS(=O)(=O)N1[C@@H]2CC[C@@H](C2)[C@H]1c1nnc(CCc2ccncc2)[nH]1` [Compound 25A, (1R,3S,4S)-2-(isobutylsulfonyl)-3-(5-(2-(pyridin-4-yl)ethyl)-4H-1,2,4-triazol-3-yl)-2-azabicyclo[2.2.1]heptane] showed an IC50 of 10 to 50 µM. With `O=S(=O)(Cc1ccccc1)N1CC2(CC2)C[C@H]1c1nc(CCCc2ccccc2)no1` [Compound 5E, 3-(3-Phenylpropyl)-5-{(6S)-5-benzylsulfonyl-5-azaspiro[2.4]hept-6-yl}-1,2,4-oxadiazole] the IC50 was 10 to 50 µM. Work on `O=S(=O)(c1ccccc1)N1CC(CC2CCC2)CC1c1nc(CCCc2ccccc2)no1` (stereo not drawn) [Compound 6D, 3-(3-phenylpropyl)-5-(1-benzenesulfonyl-4-cyclobutylmethylpyrrolidin-2-yl)-1,2,4-oxadiazole] yielded an IC50 of under 10 µM. `O=S(=O)(N1CCCCC1)N1C[C@H](c2ccccc2)C[C@H]1c1nc(CCCc2ccccc2)no1` [Compound 7AD] gave an IC50 of 10 to 50 µM. `O=S(=O)(c1ccc(F)cc1)N1CC(CC2CCC2)CC1c1nc(CCCc2ccccc2)no1` (stereo not drawn) [Compound 6AJ, 5-(4-(cyclobuthylmethyl)-1-((4-fluorophenyl)sulfonyl)pyrrolidin-2-yl)-3-(3-phenylpropyl)-1,2,4-oxsdiazole] gave an IC50 of under 10 µM. In the case of `CC(C)(C)NC(=O)N1C[C@H]2CC[C@]1(c1nc(CCc3ccncc3)no1)CC2` [Compound 13H, (1s, 4s)-N-(tert-butyl)-1-(3-(2-(pyridin-4-yl)ethyl)-1,2,4-oxadiazol-5-yl)-2-azabicyclo[2.2.2]octane-2-carboxamide], the IC50 is reported as over 50 µM. For `COc1ccc(CCCc2noc([C@@H]3CCCCN3S(=O)(=O)C3CCCCC3)n2)cc1OC` [Compound 22B, (S)-5-(1-(cyclohexylsulfonyl)piperidin-2-yl)-3-(3-(3,4-dimethoxyphenyl)propyl)-1,2,4-oxadiazole], the IC50 was under 10 µM. `CC(C)(C)OC(=O)N1CCC(CS(=O)(=O)N2CC(CC3CCC3)CC2c2nc(CCCc3ccccc3)no2)CC1` (stereo not drawn) [Compound 6AN, tert-buthyl 4-(((4-(cyclobuthylmethyl)-2-(3-(3-phenylpropyl)-1,2,4-oxadiazole-5-yl)pyrrolidin-1-yl)sulfonyl)methyl)piperidin-1-carboxylate] showed an IC50 of 10 to 50 µM. Compound `CC(C)(C)OC(=O)N1CCCC[C@H]1c1nnc(CCc2ccccc2)o1` [Compound 17-1, Tert-butyl (S)-2-(5-phenethyl-1,3,4-oxadiazol-2-yl) piperidine-1-carboxylate] has an IC50 of under 10 µM. Compound `CC(C)CS(=O)(=O)N1C[C@H](F)C[C@H]1c1nc(CCCc2ccccc2)no1` [Compound 8A, 3-(3-phenylpropyl)-5-[(2S,4R)-1-isobutylsulfonyl-4-fluoropyrrolidin-2-yl]-1,2,4-oxadiazole] has an IC50 of 10 to 50 µM. `Cc1oc([C@@H]2CCCCN2S(=O)(=O)C2CCCCC2)nc1C(=O)NCc1ccccc1` [Compound 34B, (S)—N-Benzyl-2-(1-(cyclohexylsulfonyl)piperidin-2-yl)-5-methyloxazole-4-carboxamide] was tested, and the IC50 was 10 to 50 µM.

Same assay, conditions: Vero, 72 h, read-out: Anti-RS virus Activity
`S=C(Nc1ccccc1)N1C[C@H](c2ccccc2)C[C@H]1c1nc(CCCc2ccccc2)no1` [Compound 7AQ, (2S,4S)—N,4-di phenyl-2-(3-(3-phenylpropyl)-1,2,4-oxadiazol-5-yl) pyrrolidine-1-carbothioamide] showed an IC50 of 10 to 50 µM.
